Common to all, as to assay type: binding
Test [1] concerns the target T1, human SSTR1 (Homo sapiens, UniProt P30872).
T1 construct: expressed in transfected cells; host or cells: CHO-K1 cells and CCL39 cells
Kind of test: Displacement of 125I-[Leu8,D-Trp22,Tyr25]-SRIF-28 from cloned SSTR1 (receptor autoradiography). The note with it: for binding strength and selectivity for SSTR1, in words: Peptide No. 27 and 2A after iodination. The method, then:
(§1) Generally, recombinant cells expressing the receptor are washed and homogenized to prepare a crude protein homogenate that is frozen, embedded and then cut in 10–20 μm thin sections, as known in this art. Candidate substances, such as potential SRIF agonists and antagonists, are incubated with the tissue sections, and the interaction between the candidate substance and the receptor polypeptide is monitored.
(§2) Receptor binding assays are performed on cloned SRIF receptors as generally set forth in Reubi, J. C. et al., J. Clin. Endocrinol. […] Med. 2000, 27, 273–282.
(§3) In vitro Bioassay: The various somatostatin analogs are tested in vitro for their ability to bind to isolated cloned receptors expressed on CHO-K1 cells and CCL39 cells. CHO-K1 cells are grown in Ham's F-12 medium, and CCL39 cells are grown in Dulbecco's modified Eagle's medium/Ham's F-12(1:1) mix, supplemented with 10% fetal bovine serum, 100 U/ml penicillin and 100 μg/ml streptomycin, in humidified air containing 5% CO2 at 37° C.
(§4) Cells are washed and prepared to produce homogenates as described in detail in Reubi, J. C. et al, Eur. J. Nucl. Med. 2000, 27, 273–282.
(§5) Receptor autoradiography is performed on 20 μm thick cryostat sections of the membrane pellets, mounted on microscope slides, and then stored at −20° C. […] Increasing concentrations of the unlabeled peptide are used ranging from 0.1–1000 nM. […] IC50 values are calculated after quantification of the data using a computer-assisted image processing system as known in this art.
(Loss of bound radioactivity is the signal in a displacement assay; it reports binding, not function.)

Test [2] concerns the target T2, human SSTR2 (Homo sapiens, UniProt P30874).
T2 construct: expressed in transfected cells; host or cells: CHO-K1 cells and CCL39 cells
In words: Displacement of 125I-[Leu8,D-Trp22,Tyr25]-SRIF-28 from cloned SSTR2 (receptor autoradiography). The note with it: for IC50: read-out: IC50 (nM) mSSTR2. How it is done: as §1, §2, §3, §4
Receptor autoradiography is performed on 20 μm thick cryostat sections of the membrane pellets, mounted on microscope slides, and then stored at −20° C. […] […] […] IC50 values are calculated after quantification of the data using a computer-assisted image processing system as known in this art.

Test [3] has as its target T3, human SSTR3 (Homo sapiens, UniProt P32745).
T3 construct: expressed in transfected cells; host or cells: CHO-K1 cells and CCL39 cells
Kind of test: Displacement of 125I-[Leu8,D-Trp22,Tyr25]-SRIF-28 from cloned SSTR3 (receptor autoradiography). The method, then:
as §1, §2, §3, §4, §5

Test [4] has as its target T4, human SSTR4 (Homo sapiens, UniProt P31391).
T4 construct: expressed in transfected cells; host or cells: CHO-K1 cells and CCL39 cells
Kind of test: Displacement of 125I-[Leu8,D-Trp22,Tyr25]-SRIF-28 from cloned SSTR4 (receptor autoradiography). The note with it: for IC50: inhibition of radioligand binding of 125I-[Leu8,D-Trp22,Tyr24]SRIF-28, cloned receptor, table, read-out: IC50 (nM) mSSTR4. The method, then:
as §1, §2, §3, §4, §5

*1 amine or outer side, *2 acyl side, *3 side chain or, on linkers, in order; H or OH if unused. Where a SMILES comes first, the peptide text is derived from it. Bridges are numbered along the chain shown (N, C = ends). [ ]: non-standard residue; d: D form. NMePhe(4-CH2NHiPr) = CN[C@@H](Cc1ccc(CNC(C)C)cc1)C(=O)O; Phe(4-CH2NHiPr) = CC(C)NCc1ccc(C[C@H](N)C(=O)O)cc1; Tyr(3-I) = N[C@@H](Cc1ccc(O)c(I)c1)C(=O)O; X1 = NC(=O)N[C@@H](CS[*:2])C(=O)[*:1] Some results are limits rather than exact numbers.

T2 sequence (P30874 whole entry): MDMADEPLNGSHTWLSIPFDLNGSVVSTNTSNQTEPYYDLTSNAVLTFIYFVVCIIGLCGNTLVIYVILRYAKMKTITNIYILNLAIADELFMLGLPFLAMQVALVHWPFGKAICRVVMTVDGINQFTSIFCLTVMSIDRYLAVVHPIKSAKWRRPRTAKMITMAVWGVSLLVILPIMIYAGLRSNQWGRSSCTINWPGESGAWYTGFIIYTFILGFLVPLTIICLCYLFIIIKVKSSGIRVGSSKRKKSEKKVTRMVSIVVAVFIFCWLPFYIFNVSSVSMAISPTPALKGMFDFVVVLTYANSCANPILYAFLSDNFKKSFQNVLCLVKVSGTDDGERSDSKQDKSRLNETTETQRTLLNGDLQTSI
T3 sequence (P32745 whole entry): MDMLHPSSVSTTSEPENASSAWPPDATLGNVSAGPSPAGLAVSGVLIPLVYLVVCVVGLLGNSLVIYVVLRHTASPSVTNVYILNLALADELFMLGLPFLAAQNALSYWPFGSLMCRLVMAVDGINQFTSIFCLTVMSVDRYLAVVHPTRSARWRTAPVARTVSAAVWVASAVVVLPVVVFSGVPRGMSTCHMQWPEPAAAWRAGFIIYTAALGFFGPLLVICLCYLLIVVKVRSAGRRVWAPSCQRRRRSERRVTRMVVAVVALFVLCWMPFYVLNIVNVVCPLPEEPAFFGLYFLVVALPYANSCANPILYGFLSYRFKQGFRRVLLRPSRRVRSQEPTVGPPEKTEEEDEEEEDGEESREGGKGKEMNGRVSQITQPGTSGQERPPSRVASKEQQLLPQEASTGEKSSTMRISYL
T1 sequence (P30872 whole entry): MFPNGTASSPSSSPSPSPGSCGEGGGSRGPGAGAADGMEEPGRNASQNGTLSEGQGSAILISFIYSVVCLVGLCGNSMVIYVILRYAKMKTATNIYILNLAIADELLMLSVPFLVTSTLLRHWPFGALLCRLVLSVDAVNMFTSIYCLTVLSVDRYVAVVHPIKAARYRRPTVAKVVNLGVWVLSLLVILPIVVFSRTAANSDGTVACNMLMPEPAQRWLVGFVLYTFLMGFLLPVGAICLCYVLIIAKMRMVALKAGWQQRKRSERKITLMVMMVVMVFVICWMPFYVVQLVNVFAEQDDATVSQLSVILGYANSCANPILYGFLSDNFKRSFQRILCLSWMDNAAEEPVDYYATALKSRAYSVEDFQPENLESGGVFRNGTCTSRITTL
T4 sequence (P31391 whole entry): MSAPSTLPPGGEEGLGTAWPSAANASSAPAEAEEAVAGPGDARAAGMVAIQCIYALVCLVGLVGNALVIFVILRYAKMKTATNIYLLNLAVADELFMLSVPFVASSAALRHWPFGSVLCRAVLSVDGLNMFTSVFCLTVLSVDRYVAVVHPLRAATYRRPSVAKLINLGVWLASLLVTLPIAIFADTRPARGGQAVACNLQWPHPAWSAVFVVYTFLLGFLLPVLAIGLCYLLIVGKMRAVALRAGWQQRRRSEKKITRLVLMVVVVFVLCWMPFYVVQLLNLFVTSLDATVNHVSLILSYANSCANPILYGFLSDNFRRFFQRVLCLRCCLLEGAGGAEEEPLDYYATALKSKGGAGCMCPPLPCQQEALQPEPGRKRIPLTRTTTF

A word on the IC50: it is the midpoint of a concentration-inhibition curve. Take `CC(C)NCc1ccc(C[C@@H]2NC(=O)[C@@H](Cc3c[nH]c4ccccc34)NC(=O)[C@H](Cc3ccccc3)NC(=O)[C@H](Cc3ccccc3)NC(=O)[C@H](CCCCN)NC(=O)[C@@H](N)CSSC[C@@H](C(=O)O)NC(=O)[C@H](CO)NC(=O)[C@H]([C@@H](C)O)NC(=O)[C@H](Cc3ccc(O)cc3)NC(=O)[C@H]([C@@H](C)O)NC2=O)cc1` [2A, (cyclo)H-Cys-Lys-Phe-Phe-D-Trp-IAmp-Thr-Tyr-Thr-Ser-Cys-OH] (H-CKFF[dW][Phe(4-CH2NHiPr)]TYTSC-OH; disulfide 1-11): the “binding strength and selectivity for SSTR1, in words” value (from here on “binding strength and selectivity”) in test [1] is given as “continues to bind strongly”. Moreover, the IC50 in test [2] and in test [4] was > 10000 nM each time. For the same molecule, the “effect on binding of the SRIF-28 radioligand to human SSTR3” value in test [3] (at concentrations of 100 nM) is on record as “even less effect”.
`CC(C)NCc1ccc(C[C@@H]2NC(=O)[C@@H](Cc3c[nH]c4ccccc34)NC(=O)[C@H](Cc3ccccc3)NC(=O)[C@H](Cc3ccccc3)NC(=O)[C@H](CCCCN)NC(=O)[C@@H](N)CSSC[C@@H](C(=O)O)NC(=O)[C@H](CO)NC(=O)[C@H]([C@@H](C)O)NC(=O)[C@H](Cc3ccc(O)c(I)c3)NC(=O)[C@H]([C@@H](C)O)NC2=O)cc1` [Peptide No. 2B] (H-CKFF[dW][Phe(4-CH2NHiPr)]T[Tyr(3-I)]TSC-OH; disulfide 1-11): the IC50 in test [2] was > 10000 nM.
For the molecule `CC(C)NCc1ccc(C[C@@H]2NC(=O)[C@@H](Cc3c[nH]c4ccccc34)NC(=O)[C@H](Cc3ccccc3)NC(=O)[C@H](Cc3ccccc3)NC(=O)[C@H](CCCCN)NC(=O)[C@@H](NC(N)=O)CSSC[C@@H](C(=O)O)NC(=O)[C@H](CO)NC(=O)[C@H]([C@@H](C)O)NC(=O)[C@H](Cc3ccc(O)c(I)c3)NC(=O)[C@H]([C@@H](C)O)NC2=O)cc1` [Peptide No. 12B] (KFF[dW][Phe(4-CH2NHiPr)]T[Tyr(3-I)]TSC-OH; linker N-10 via X1), in test [2], the IC50 was > 10000 nM.
Consider `CC(C)NCc1ccc(C[C@H]2C(=O)N[C@@H]([C@@H](C)O)C(=O)N[C@@H](Cc3ccccc3)C(=O)N[C@@H]([C@@H](C)O)C(=O)N[C@@H](CO)C(=O)N[C@H](C(=O)O)CSSC[C@H](NC(=O)[C@@H](N)Cc3ccc(O)cc3)C(=O)N[C@@H](CCCCN)C(=O)N[C@@H](Cc3ccccc3)C(=O)N[C@@H](Cc3ccccc3)C(=O)N[C@H](Cc3c[nH]c4ccccc34)C(=O)N2C)cc1` [Peptide No. 27, (cyclo)H-Tyr-Cys-Lys-Phe-Phe-D-Trp-N^αMeIAmp-Thr-Phe-Thr-Ser-Cys-OH] (H-YCKFF[dW][NMePhe(4-CH2NHiPr)]TFTSC-OH; disulfide 2-12), for which the IC50 in test [1] (inhibition of radioligand binding of 125I-[Leu8,D-Trp22,Tyr24]SRIF-28, cloned receptor, table, read-out: IC50 (nM) mSSTR1) was 25 nM; in test [2], > 10000 nM; in test [3] (read-out: IC50 (nM) mSSTR3) it was > 1000 nM; in test [4], 300 nM. For the same molecule, the “binding to SSTR2, in words” value in test [2] (Peptide No. 27 iodinated) is “No specific binding”. Moreover, in test [3] (Peptide No. 27 iodinated), the “binding to SSTR3, in words” value is “No specific binding”. In addition, the “binding to SSTR4, in words” value in test [4] (Peptide No. 27 iodinated) is “No specific binding”.
For “(cyclo 3-14)MeCbm-Cys-Lys-Phe-Phe-D-Trp-N^αMeIAmp-Thr-Tyr-Thr-Ser-Cys-OH [Peptide No. 17]”, in test [1], the “binding strength and selectivity” value is “bind strongly and selectively”.
The same measure, in the same setting: the same measure for “(cyclo) (DOTA)Cys-Lys-Phe-Phe-D-Trp-N^αMeIAmp-Thr-Tyr-Thr-Ser-Cys-OH [Peptide No. 25]”: “continue to bind strongly and selectively”.
In the case of “(cyclo) (DPTA)Cys-Lys-Phe-Phe-D-Trp-N^αMeIAmp-Thr-Tyr-Thr-Ser-Cys-OH [Peptide No. 26]”, the “binding strength and selectivity” value in test [1] is “continue to bind strongly and selectively”.
For the molecule “(cyclo)Biucys-Lys-Phe-Phe-D-Trp-N^αMeIAmp-Thr-Tyr-Thr-Ser-Cys-OH [Peptide No. 18]”, the “binding strength and selectivity” value in test [1] is “bind strongly and selectively”.

(Values after patent US7019109B2, “SSTR1-selective analogs” (The Salk Institute for Bilogical Studies, priority 2001, dated 2006).)
